Laboratory results: US9867805B2, “Gelatinase inhibitors and prodrugs” (priority 2010, dated 2018)
In brackets after ≈: the same amount, converted by molar mass. Counter-ions that a name gives are not always drawn. Like-named read-outs stand apart in the source and are kept apart here.

Legend:
[1] = cited from earlier work
[2] = mice; cited from earlier work
[3] = rat; cited from earlier work
[4] = target: other MMPs; conditions: background, earlier reports; cited from earlier work
[5] = Water solubility
[6] = target: T1, human MMP-2 (Homo sapiens, UniProt P08253); test: biochemical; conditions: for koff: read-out: koff, MMP-2; for kon: read-out: kon, MMP-2
T1 sequence (P08253 110-660): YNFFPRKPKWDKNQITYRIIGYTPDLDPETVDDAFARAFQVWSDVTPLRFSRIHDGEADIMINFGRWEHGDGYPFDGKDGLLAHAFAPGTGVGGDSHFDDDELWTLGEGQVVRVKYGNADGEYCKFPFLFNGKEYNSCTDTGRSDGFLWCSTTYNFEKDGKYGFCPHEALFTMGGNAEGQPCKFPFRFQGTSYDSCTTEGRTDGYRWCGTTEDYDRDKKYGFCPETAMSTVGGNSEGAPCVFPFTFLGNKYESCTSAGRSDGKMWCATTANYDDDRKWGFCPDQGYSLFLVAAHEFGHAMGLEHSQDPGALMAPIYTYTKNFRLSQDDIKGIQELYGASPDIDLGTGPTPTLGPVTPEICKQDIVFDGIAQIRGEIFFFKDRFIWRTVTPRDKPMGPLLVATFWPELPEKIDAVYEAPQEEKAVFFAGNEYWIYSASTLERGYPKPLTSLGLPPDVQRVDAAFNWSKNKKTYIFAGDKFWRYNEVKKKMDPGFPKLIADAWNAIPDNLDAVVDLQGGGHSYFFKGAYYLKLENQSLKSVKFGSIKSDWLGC

[7] = target: T2, human MMP-9 (Homo sapiens, UniProt P14780); test: biochemical; conditions: for koff: read-out: koff, MMP-9; for kon: read-out: kon, MMP-9
T2 sequence (P14780 107-707 limits assumed): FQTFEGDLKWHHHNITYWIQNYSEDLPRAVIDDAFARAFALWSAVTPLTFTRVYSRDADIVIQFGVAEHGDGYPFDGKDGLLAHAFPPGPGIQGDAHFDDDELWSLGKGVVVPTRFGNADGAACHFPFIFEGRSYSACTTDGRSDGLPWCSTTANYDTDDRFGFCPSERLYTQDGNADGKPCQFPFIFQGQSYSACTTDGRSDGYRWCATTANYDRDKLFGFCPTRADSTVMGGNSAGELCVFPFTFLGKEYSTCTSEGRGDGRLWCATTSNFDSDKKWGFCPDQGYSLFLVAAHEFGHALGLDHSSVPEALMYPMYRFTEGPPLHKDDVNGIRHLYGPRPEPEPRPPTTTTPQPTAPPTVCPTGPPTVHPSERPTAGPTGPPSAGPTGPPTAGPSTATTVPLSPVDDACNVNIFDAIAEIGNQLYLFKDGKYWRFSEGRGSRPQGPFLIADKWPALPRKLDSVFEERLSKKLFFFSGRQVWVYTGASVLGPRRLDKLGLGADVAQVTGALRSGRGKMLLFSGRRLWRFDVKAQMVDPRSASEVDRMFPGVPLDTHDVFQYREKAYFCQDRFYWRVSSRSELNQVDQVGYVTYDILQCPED

[8] = Half-life in human blood at 37° C.; conditions: for half-life: human, blood
[9] = Half-life in human plasma at 37° C.; conditions: for half-life: human, plasma
[10] = Half-life in rat liver microsomes
[11] = Half-life in mouse liver microsomes
[12] = Half-life in human liver microsomes
[13] = system: Ames II mixed strains and strain TA98; test: Ames mutagenicity assay (reverse mutations); conditions: with and without rat liver S9 metabolic activation; six concentrations up to 1 mg/mL
[14] = target: T1, human MMP-2; conditions: read-out: Ki, MMP-2
[15] = target: T2, human MMP-9; conditions: read-out: Ki, MMP-9
[16] = target: T1, human MMP-2; conditions: read-out: Ki for human MMP-2; background, earlier reports; cited from earlier work
[17] = target: T2, human MMP-9; conditions: read-out: Ki for human MMP-9; background, earlier reports; cited from earlier work
[18] = target: T3, MMP-7 (Homo sapiens, UniProt P09237); conditions: read-out: Ki, MMP-7
T3 sequence (P09237 95-267): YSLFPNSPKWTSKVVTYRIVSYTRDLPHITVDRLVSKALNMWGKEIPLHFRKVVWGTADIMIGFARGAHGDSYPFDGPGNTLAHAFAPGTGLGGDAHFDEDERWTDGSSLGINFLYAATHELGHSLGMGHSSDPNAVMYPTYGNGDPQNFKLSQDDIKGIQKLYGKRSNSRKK

[19] = target: T4, MMP-14 (Homo sapiens, UniProt P50281); conditions: read-out: Ki, MMP-14
[20] = target: T5, MMP-1 (Homo sapiens, UniProt P03956); test: biochemical; conditions: read-out: inhibition of MMP-1
T5 sequence (P03956 100-469): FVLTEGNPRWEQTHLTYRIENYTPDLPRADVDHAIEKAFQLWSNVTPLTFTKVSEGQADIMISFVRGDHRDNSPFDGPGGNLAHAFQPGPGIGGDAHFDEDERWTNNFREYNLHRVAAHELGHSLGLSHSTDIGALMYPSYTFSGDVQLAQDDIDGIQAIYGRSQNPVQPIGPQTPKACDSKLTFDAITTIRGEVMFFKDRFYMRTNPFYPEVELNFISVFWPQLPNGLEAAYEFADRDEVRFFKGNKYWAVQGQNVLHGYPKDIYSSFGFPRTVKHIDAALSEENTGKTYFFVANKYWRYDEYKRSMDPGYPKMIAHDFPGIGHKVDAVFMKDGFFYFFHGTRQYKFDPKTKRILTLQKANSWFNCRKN

[21] = target: MMP-3 (Homo sapiens, UniProt P08254); test: biochemical; conditions: read-out: inhibition of MMP-3
Chain of MMP-3 (P08254 100-477): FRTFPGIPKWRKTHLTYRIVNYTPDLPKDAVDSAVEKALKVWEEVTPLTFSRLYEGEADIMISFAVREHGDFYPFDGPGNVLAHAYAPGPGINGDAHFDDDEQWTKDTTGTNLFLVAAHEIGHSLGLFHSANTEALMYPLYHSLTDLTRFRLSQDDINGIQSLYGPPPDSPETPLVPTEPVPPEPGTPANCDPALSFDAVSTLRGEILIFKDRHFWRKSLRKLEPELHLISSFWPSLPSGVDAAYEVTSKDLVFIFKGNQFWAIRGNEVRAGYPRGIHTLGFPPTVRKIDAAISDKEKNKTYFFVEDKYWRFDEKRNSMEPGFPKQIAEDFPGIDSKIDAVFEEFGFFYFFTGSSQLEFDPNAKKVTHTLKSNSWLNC

[22] = target: T4, MMP-14; test: biochemical

For O=S(=O)(CC1CS1)c1ccc(Oc2ccccc2)cc1 (stereo not shown) [SB-3CT], the histological damage ([1]; administration at 6 hours after ischemia) is given as “potently blocked”, the infarct volume ([1]; mouse transient ischemia) is given as 30 % of control and the neurobehavioral scores ([1]; mouse transient ischemia) is given as “significantly improved”. The “treatment of viral-induced vascular leakage” value [2] was “effective”, the “treatment in model of subarachnoid hemorrhage” value [3] was “effective” and the “Ki values for other MMPs” value [4] was “in the μM range at best”. It also gave a solubility ([5]; water, aqueous solubility) of roughly 2.45 µg/mL (≈ 0.008 mM).

NCCCCC(N)C(=O)Nc1ccc(Oc2ccc(S(=O)(=O)CC3CS3)cc2)cc1 (stereo not shown) [Compound 11b] showed a koff [6] of 0.00021 ± 9e-05 s⁻¹, a kon [6] of 3400 ± 100 M⁻¹ s⁻¹ and a koff [7] of 0.00042 ± 7e-05 s⁻¹. For the same compound, the kon [7] was 270 ± 40 M⁻¹ s⁻¹, the solubility ([5]; water, Water Solubility) was greater than 10000 µg/mL and the half-life [8] was 15.3 ± 1.9 min. For the same compound, the half-life [9] was 25.1 ± 5.2 min.

Cc1oc(=O)oc1COC(=O)Nc1ccc(Oc2ccc(S(=O)(=O)CC3CS3)cc2)cc1 (stereo not shown) [Compound 14] gave a Ki [6] of 2400 ± 600 nM, an inhibition at 80 µM ([7]; read-out: inhibition of MMP-9) of 37% and a solubility ([5]; Water Solubility, in 100% water, solubility calculated using ε of MIK-G6 (p-N-acetyl SB-3CT)) of 1.01 µg/mL (≈ 0.00212 mM). For the same compound, the half-life [9] was 1.6 ± 0.4 min.

N=C(N)NCCCC(N)C(=O)Nc1ccc(Oc2ccc(S(=O)(=O)CC3CS3)cc2)cc1 (stereo not shown) [Compound 11d] gave a solubility ([5]; water, Water Solubility) greater than 10000 µg/mL, a half-life [10] of 59.3 ± 4.5 min and a half-life [8] of 25.4 ± 0.1 min. It also gave a half-life [9] of 29.5 ± 0.7 min, a half-life [11] greater than 60 min and a half-life [12] greater than 60 min. For the same compound, the “mutagenic potential (Ames mutagenicity assay)” value [13] was “negative”.

In the case of N=C(N)NCCCC(N)C(=O)NC(CCCNC(=N)N)C(=O)Nc1ccc(Oc2ccc(S(=O)(=O)CC3CS3)cc2)cc1 (stereo not shown) [Compound 11e], the solubility ([5]; water, Water Solubility) is reported as greater than 10000 µg/mL, the half-life [8] is reported as 5.9 ± 0.6 min and the half-life [9] is reported as 11.8 ± 0.5 min.

In the case of NC(CCC(=O)O)C(=O)Nc1ccc(Oc2ccc(S(=O)(=O)CC3CS3)cc2)cc1 (stereo not shown) [Compound 11c], the koff [6] is reported as 0.00018 ± 0.00016 s⁻¹, the kon [6] is reported as 2500 ± 100 M⁻¹ s⁻¹ and the Ki [7] is reported as 5400 ± 300 nM. It also gave a koff [7] of 0.0012 ± 7e-05 s⁻¹, a kon [7] of 2300 ± 100 M⁻¹ s⁻¹ and a solubility ([5]; water, Water Solubility) greater than 10000 µg/mL. For the same compound, the half-life [8] was 27.9 ± 3.8 min and the half-life [9] was 32.8 ± 3.6 min.

In the case of NCC(=O)Nc1ccc(Oc2ccc(S(=O)(=O)CC3CS3)cc2)cc1 (stereo not shown) [Compound 11a], the Ki [14] is reported as 440 ± 50 nM, the Ki [15] is reported as 3100 ± 300 nM and the koff [6] is reported as 0.00082 ± 9e-05 s⁻¹. It also gave a kon [6] of 1900 ± 600 M⁻¹ s⁻¹, a koff [7] of 0.00065 ± 6e-05 s⁻¹ and a kon [7] of 210 ± 40 M⁻¹ s⁻¹. For the same compound, the “Half-life in human blood at 37° C.” value ([8]; human blood, 37° C.) was 27.1 ± 2.5 min and the “Half-life in human plasma at 37° C.” value ([9]; human plasma, 37° C.) was 32.4 ± 2.7 min.

In the case of O=S(=O)(CC1CS1)c1ccc(Oc2ccc(O)cc2)cc1 (stereo not shown) [p-hydroxylated metabolite], the Ki [16] is listed as 6 ± 3 nM and the Ki [17] is listed as 160 ± 80 nM.

With Nc1ccc(Oc2ccc(S(=O)(=O)CC3CS3)cc2)cc1O (stereo not shown) [Compound 22, 2-Amino-5-(4-((thiiran-2-ylmethyl)sulfonyl)phenoxy)phenol] the Ki [14] was 78 ± 43 nM, the Ki [15] was 490 ± 110 nM and the Ki [18] was 116000 ± 13000 nM. The Ki [19] was 260 ± 70 nM, the koff [6] was 0.00014 ± 7e-05 s⁻¹ and the kon [6] was 1700 ± 100 M⁻¹ s⁻¹. For the same compound, the koff [7] was 0.00053 ± 0.0001 s⁻¹, the kon [7] was 1070 ± 120 M⁻¹ s⁻¹ and the inhibition at 300 µM [20] was 11%. It also gave an inhibition at 300 µM [21] of 54%, a koff ([22]; read-out: koff, MMP-14) of 0.000702 ± 0.000161 s⁻¹ and a kon ([22]; read-out: kon, MMP-14) of 2690 ± 270 M⁻¹ s⁻¹.

With Nc1ccc(Oc2ccc(S(=O)(=O)CC3CS3)cc2)cc1 (stereo not shown) [Compound 6, 4-[4-((Thiiran-2-yl)methylsulfonyl)phenoxy]benzamine.HCl salt] the “Half-life in liver microsomes, Rat” value [10] was 23.4 ± 0.7 min, the “Half-life in liver microsomes, Mouse” value [11] was 27.3 ± 2.1 min and the “Half-life in liver microsomes, Human” value [12] was greater than 60 min.
